Among the data in the supplement of paper PMC11061612 are Bliss excess values, retold here.

What all share (assay): Bliss excess, mean over the matrix (fraction); higher = more synergy
Test [1] deals with CAL-39 (Other Solid Carcinomas). Put shortly:
(§1)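 After 24 hours at 37°C and 5% CO2 in 1536-well plates, cells in DMEM/F12 or RPMI plus 10% FBS received two-drug dose matrices for 72 hours. Viability came from CellTiter-Glo 2.0 luminescence and was scaled as inhibition, anchored at 0 by vehicle wells and at 1 by blank wells. Combination Emax is taken as the second-highest inhibition in the matrix, and Bliss excess as the observed combination effect less EA + EB − EA·EB, with EA and EB the single-agent effects.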

The next test has as its system CS1 (Chondrosarcoma). The procedure, abridged: as §1
In test [2] the test system is D-283MED (Other Solid Carcinomas). The procedure, abridged:
as §1

The test system of test [3] is DOK (Oral Cavity Carcinoma). Put shortly: as §1
The subject of test [4] is ETK-1 (Biliary Tract Carcinoma). The procedure, abridged: as §1
Test [5] relates to GDM-1 (Acute Myeloid Leukemia). The procedure, abridged: as §1
Test [6] concerns HCC-827 (Lung Adenocarcinoma). The procedure, abridged: as §1
For test [7], the system named is HCC1143 (Breast Carcinoma). Put shortly: as §1
The subject of the next test is HCC38 (Breast Carcinoma). Put shortly:
as §1

Test [8] relates to HLE (Hepatocellular Carcinoma). Put shortly:
as §1

Test [9] deals with HOP-92 (Non-Small Cell Lung Carcinoma). The procedure, abridged: as §1
The test system of another test is MCF7 (Breast Carcinoma). Put shortly:
as §1

In test [10] the test system is MEG-01 (Chronic Myelogenous Leukemia). Put shortly: as §1
The subject of test [11] is NCI-H1688 (Small Cell Lung Carcinoma). The procedure, abridged:
as §1

The subject of test [12] is P31-FUJ (Acute Myeloid Leukemia). Put shortly:
as §1

The test system of test [13] is RCC10RGB (Kidney Carcinoma). The procedure, abridged:
as §1

Another test has as its system SK-MEL-1 (Melanoma). Put shortly:
as §1

Test [14] concerns SK-UT-1 (Other Solid Carcinomas). The procedure, abridged:
as §1

Test [15] concerns SNG-M (Endometrial Carcinoma). Put shortly:
as §1

The next test concerns Saos-2 (Osteosarcoma). The procedure, abridged:
as §1

With `Cc1c2c(nn1C)CSCc1cc(n(C)n1)CSc1cc(c3ccccc3c1)OCCCc1c(C(=O)O)n(C)c3c-2c(Cl)ccc13` [AZD5991] + CC1(C)CCC(CN2CCN(c3ccc(C(=O)NS(=O)(=O)c4ccc(NCC5CCOCC5)c([N+](=O)[O-])c4)c(Oc4cnc5[nH]ccc5c4)c3)CC2)=C(c2ccc(Cl)cc2)C1 [Venetoclax] (first compound max 1 µM, 7x7, partner max 1 µM), the Bliss excess in [1] was -0.0298; with CS1 (Chondrosarcoma), -0.0418; in test [2] it was 0.0701; in [3] it was 0.0712; in [4] it was -0.0526; in test [5] it was 0.174. For the same compound, the Bliss excess is -0.0269 in [6]; 0.0051 in test [7]; -0.0307 with HCC38 (Breast Carcinoma); -0.0061 in [8]; 0.0247 in test [9]; 0.0623 in the test with MCF7 (Breast Carcinoma). Further, the Bliss excess in test [10] was 0.105; in [11], 0.105; in test [12], 0.137; in [13] it was -0.0086; in the test with SK-MEL-1 (Melanoma) it was -0.0536; in [14] it was -0.0095. The Bliss excess in test [15] is -0.027; in the test with Saos-2 (Osteosarcoma), 0.0174.
Turning to `NC1(C(=O)N[C@@H](CCO)c2ccc(Cl)cc2)CCN(c2ncnc3[nH]ccc23)CC1` [Capivasertib] + COc1nnc2ccc(N3CCC(c4ccc(OCCN5CCN(C)C(=O)[C@H]5C)cc4)CC3)nn12 [AZD5153] (first compound max 10 µM, 7x7, partner max 1 µM), the Bliss excess in test [1] was -0.0579; with CS1 (Chondrosarcoma), 0.0057; in test [2] it was -0.0185; in test [3], 0.03; in [4] it was 0.0486; in [5], 0.0163. The Bliss excess in test [6] is 0.0472; in test [7], -0.0035; in the test on HCC38 (Breast Carcinoma), -0.022; in test [8] it was -0.0096; in test [9] it was -0.0027; in the test with MCF7 (Breast Carcinoma) it was -0.0413. Besides, the Bliss excess in test [10] is -0.0355; in test [11], 0.001; in test [12] it was 0.0066; in test [13] it was 0.0221; with SK-MEL-1 (Melanoma), 0.0315; in test [14], 0.0637. Moreover, the results for the Bliss excess (in [15]; in the test with Saos-2 (Osteosarcoma)) were 0.0787 and -0.0028, respectively.
For the compound `Cc1c2c(nn1C)CSCc1cc(n(C)n1)CSc1cc(c3ccccc3c1)OCCCc1c(C(=O)O)n(C)c3c-2c(Cl)ccc13` [AZD5991] + CCN(CCO)CCCOc1ccc2c(Nc3cc(CC(=O)Nc4cccc(F)c4)[nH]n3)ncnc2c1 [AZD2811] (first compound max 1 µM, 7x7, partner max 1 µM), the Bliss excess is -0.0192 in test [1]; -0.044 with CS1 (Chondrosarcoma); 0.051 in [2]; 0.0524 in test [3]; -0.0018 in test [4]; 0.0444 in test [5]. Also, the Bliss excess is 0.0011 in test [6]; 0.0514 in test [7]; 0.058 with HCC38 (Breast Carcinoma); -0.0018 in test [8]; 0.0184 in test [9]; 0.0081 in the test with MCF7 (Breast Carcinoma). Moreover, the Bliss excess in test [10] was 0.002; in test [11] it was 0.0059; in test [12], -0.0193; in test [13] it was -0.0567; in the test with SK-MEL-1 (Melanoma) it was -0.0194; in [14] it was 0.0125. For the same compound, the Bliss excess was found to be 0.0446 in [15] and 0.0534 with Saos-2 (Osteosarcoma).
For `CN(CCO)CC[C@H](CSc1ccccc1)Nc1ccc(S(=O)(=O)NC(=O)c2ccc(N3CCC([C@@H](O)c4ccccc4-c4ccc(Cl)cc4)CC3)cc2)cc1S(=O)(=O)C(F)(F)F` [AZD4320] + C=CCn1c(=O)c2cnc(Nc3ccc(N4CCN(C)CC4)cc3)nc2n1-c1cccc(C(C)(C)O)n1 [AZD1775] (first compound max 1 µM, partner max 1 µM), the Bliss excess in [1] is -0.0529; in the test on CS1 (Chondrosarcoma), -0.0017; in test [2] it was -0.0122; in [3] it was -0.0273; in [4], -0.0295; in test [5], 0.0814. The Bliss excess in test [6] is -0.0164; in test [7], -0.0111; in the test on HCC38 (Breast Carcinoma), 0.0723; in test [8], 0.0906; in test [9], 0.101; in the test with MCF7 (Breast Carcinoma), -0.0008. The Bliss excess in test [10] is 0.0516; in test [11], 0.0959; in test [12], 0.113; in test [13] it was -0.0183; in the test on SK-MEL-1 (Melanoma), -0.0091; in test [14] it was 0.0431. In addition, the Bliss excess in test [15] amounted to 0.104; with Saos-2 (Osteosarcoma) it was 0.0348.
Consider `C[C@@H](c1ccc2nccn2c1)n1nnc2ncc(-c3cnn(C)c3)nc21` [Savolitinib] + Cc1c2c(nn1C)CSCc1cc(n(C)n1)CSc1cc(c3ccccc3c1)OCCCc1c(C(=O)O)n(C)c3c-2c(Cl)ccc13 [AZD5991] (first compound max 1 µM, 7x7, partner max 1 µM), for which the Bliss excess in [1] is -0.0722; with CS1 (Chondrosarcoma), -0.031; in [2], 0.0649; in test [3], -0.0681; in test [4], -0.0544; in [5], -0.0004. For the same compound, the Bliss excess in test [6] is -0.008; in test [7] it was 0.0108; with HCC38 (Breast Carcinoma), -0.0279; in [8] it was -0.0053; in test [9], -0.0338; with MCF7 (Breast Carcinoma), -0.0242. Besides, the Bliss excess in [10] was -0.0308; in test [11], 0.0064; in test [12], -0.049; in test [13], -0.0371; in the test on SK-MEL-1 (Melanoma), -0.0235; in [14] it was 0.0093. The Bliss excess in [15] was 0.0124; in the test with Saos-2 (Osteosarcoma), -0.0405.
For `NC1(C(=O)N[C@@H](CCO)c2ccc(Cl)cc2)CCN(c2ncnc3[nH]ccc23)CC1` [Capivasertib] + CC(=O)c1c(C)c2cnc(Nc3ccc(N4CCNCC4)cn3)nc2n(C2CCCC2)c1=O [Palbociclib] (first compound max 10 µM, 7x7, partner max 10 µM), the Bliss excess in test [1] is 0.0167; in the test on CS1 (Chondrosarcoma) it was 0.016; in test [2], -0.0227; in test [3], 0.016; in [4], -0.0711; in test [5], 0.0262. Further, the Bliss excess in test [6] was -0.034; in test [7] it was 0.0317; with HCC38 (Breast Carcinoma), -0.023; in test [8], -0.002; in test [9], 0.0322; in the test with MCF7 (Breast Carcinoma), 0.049. Moreover, the Bliss excess was -0.0355 in [10]; 0.017 in test [11]; -0.0807 in test [12]; -0.0368 in [13]; -0.0307 in the test on SK-MEL-1 (Melanoma); -0.0009 in test [14]. Also, the values for the Bliss excess (in [15]; in the test with Saos-2 (Osteosarcoma)) were -0.0601 and 0.0005, respectively.
